Patent US20140370080A1, “HISTONE DEACETYLASE (HDAC) INHIBITORS FOR TREATMENT OF POST-SURGICAL ADHESIONS” (TRUSTEES OF BOSTON UNIVERSITY, priority 2011, published 2014)

Columns and labels:
[1] = tested on: adhesion formation; assay: Ischemic button model of intraabdominal adhesion formation, adhesion scoring on postoperative day 7; type: in vivo, Male Wistar rats; conditions: for % Reduction (of adhesion formation vs control) / Mean adhesion formation (percentage of ischemic buttons with attached adhesions): rats, single intra-operative intraperitoneal dose (SAHA 50 mg/kg, MS-275 10 mg/kg); for % Reduction (of adhesion formation vs control): postoperative day 7; for Mean adhesion formation (percentage of ischemic buttons with attached adhesions): scored postoperative day 7, N=6; for treatment of surgical adhesions (result in words): single intra-operative dose, FIG. 4
Description: (§1) The surgical procedure described in Chu et al. (Surgery, 2011, 149(6): 801-812), content of which is herein incorporated by reference in its entirety, was used to test the HDAC inhibitors discussed herein. […] Adhesions were induced on the day of operation using our previously described ischemic button model. Animals were killed on postoperative day 7 for adhesion scoring. The effect of the HDAC inhibitors on intestinal wound healing was measured using colonic anastomotic burst pressures.
Male Wistar rats (range, 200-225 g; Charles River Laboratories, Wilmington, Mass.) warehoused at constant room temperature and under 12-hour light/12-hour dark cycles and allowed access to food and water ad libitum. The Institutional Animal Care and Use Committee at the Boston University School of Medicine approved this study, and all procedures described were performed in accordance with recommendations outlined in the Guide for the Care and Use of Laboratory Animals: Eighth Edition (NRC 2011) published by the National Academies of Science.
Intraperitoneal ischemic buttons were created as described in Reed et al. (J. Surgical Res., 2002, 108:165-172), content of which is herein incorporated by reference in its entirety. In brief, after a midline laparotomy, 6 ischemic buttons (3 on each side) were created by ligating 5 mm of parietal peritoneum with 4-0 silk suture. Adhesion formation was quantified in a blinded fashion on postoperative day 7 by scoring the percentage of buttons with attached fibrinous adhesions in each rat. For example, an animal that had adhesions attached to 4 of its 6 ischemic buttons received a score of 66%.

[2] = tested on: anastomotic wound healing; assay: Colonic anastomotic burst pressure (intestinal wound healing); type: in vivo, Male Wistar rats; conditions: 50 mg/kg intraperitoneally, single intra-op dose, at 7 days, FIG. 3B
Description: as §1
In the final experiment, the inventors tested the effects of intraperitoneal HDAC inhibitors on anastomotic wound healing. Male Wistar rats were randomized to operative controls (OP Control) or operative treatment with HDAC inhibitor as noted in the figure. […] In brief, after laparotomy and division of the distal colon, an end-to-end colonic anastomosis was created using a single running layer of 7-0 polypropylene suture. Animals were killed 7 days postoperatively and, after removing a 4-cm segment containing the anastomosis, the segment underwent measurements of burst pressure as described in Aarons et al. (Annals of Surgery, 2007, 245(2): 176-184), content of which is incorporated herein by reference in its entirety.

| anastomotic wound healing (burst pressure) [2] | Compound | % Reduction (of adhesion formation vs control) [1] [%] | Mean adhesion formation (percentage of ischemic buttons with attached adhesions) [1] [%] | treatment of surgical adhesions (result in words) [1] | adhesion formation ([1]; 25 mg/kg, three doses (pre-op, intra-op and pre-op), FIG. 2A) | adhesion formation ([1]; 50 mg/kg intraperitoneally, 3 doses (24 hr pre-op, intra-op, 24 hrs post-op), at 7 days, FIG. 1B) | adhesion formation ([1]; 50 mg/kg intraperitoneally, single intra-op dose, at 7 days, FIG. 2A) | adhesion formation ([1]; 100 mg/kg intraperitoneally, 3 doses (24 hr pre-op, intra-op, 24 hrs post-op), at 7 days, FIG. 1A) | adhesion formation ([1]; 200 mg/kg intraperitoneally, 3 doses (24 hr pre-op, intra-op, 24 hrs post-op), FIG. 1A) |
| --- | --- | --- | --- | --- | --- | --- | --- | --- | --- |
| – | Nc1ccccc1NC(=O)c1ccc(CNC(=O)OCc2cccnc2)cc1 [MS-275] | 45.16 | 47.2222 | effective | – | – | – | – | – |
| – | O=C(CCCCCCC(=O)Nc1ccccc1)NO [SAHA, suberoylanlide hydroxamic acid] | 48.39 | 44.4444 | effective | – | – | – | – | – |
| did not affect | CCCC(CCC)C(=O)O [valproic acid] | – | – | – | effective | significantly reduced | significantly reduced | significantly reduced | effective |
